# Laboratory results published in US9833497B2, “Human originated EGF domain proteins and use of the same” (CHENGDU SOURCEBIO LIMITED-LIABILITY COMPANY, priority 2013, dated 2017).
# Columns and labels:
# Assay type in all cases: cell-based
# Serratia marcescens = test: MIC against Gram-negative bacteria: Serratia marcescens
# Outline: (§1)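 Purified recombinant human EGF domain proteins are tested by broth dilution in LB against a 5×10^5 CFU/mL inoculum, with two-fold serial dilutions run in triplicate. Plates are incubated at 37° C with shaking, and the MIC is read as the lowest protein concentration without growth.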
# Klebsiella pneumonia = test: MIC against Gram-negative bacteria: Klebsiella pneumonia
# Outline: as §1
# Citrobacter diversus = test: MIC against Gram-negative bacteria: Citrobacter diversus
# Outline: as §1
# Aeromonas hydrophila = test: MIC against Gram-negative bacteria: Aeromonas hydrophila
# Outline: as §1
# Moraxella catarrhalis = test: MIC against Gram-negative bacteria: Moraxella catarrhalis
# Outline: as §1
# Pseudomonas aeruginosa = test: MIC against Gram-negative bacteria: Pseudomonas aeruginosa
# Outline: as §1
# Proteus vulgaris = test: MIC against Gram-negative bacteria: Proteus vulgaris
# Outline: as §1
# E. coli BL21 = test: MIC against Gram-negative bacteria: E. coli BL21
# Outline: as §1
# Enterobacter cloacae = test: MIC against Gram-negative bacteria: Enterobacter cloacae
# Outline: as §1
# E. coli DH5α = test: Antibacterial activity: MIC and growth curve against E. coli DH5α in 96-well plate; conditions: minimal inhibitory concentration against E. coli DH5α; 96-well plate, 5×10^5 CFU/mL, 37° C., judged after 8 h
# Outline: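 Log-phase DH5α (OD600 about 0.5, 37° C, 185 rpm in LB) was pelleted, resuspended in fresh LB and seeded at 5×10^5 CFU/mL with recombinant protein at 50, 25 and 12.5 μg/mL (two-fold series), in triplicate. Plates were shaken at 175 rpm, 37° C, and OD600 was read every 30 min. MIC was the lowest concentration with no growth.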
# Proteus mirabilis = test: MIC against Gram-negative bacteria: Proteus mirabilis
# Outline: as §1
# [1] = S. marcescens, 10 h cultivation at 37° C., 5×10^5 CFU/mL
# [2] = K. pneumonia, 10 h cultivation at 37° C., 5×10^5 CFU/mL
# [3] = C. diversus, 10 h cultivation at 37° C., 5×10^5 CFU/mL
# [4] = A. hydrophila, 10 h cultivation at 37° C., 5×10^5 CFU/mL
# [5] = M. catarrhalis, 10 h cultivation at 37° C., 5×10^5 CFU/mL
# [6] = P. aeruginosa, 10 h cultivation at 37° C., 5×10^5 CFU/mL
# [7] = P. vulgaris, 10 h cultivation at 37° C., 5×10^5 CFU/mL
# [8] = E. coli BL21, 10 h cultivation at 37° C., 5×10^5 CFU/mL
# [9] = E. cloacae, 10 h cultivation at 37° C., 5×10^5 CFU/mL
# [10] = P. mirabilis, 10 h cultivation at 37° C., 5×10^5 CFU/mL
# [11] = Serratia marcescens, 96-well plate, 5×10^5 CFU/mL, 37° C., 10 h
# [12] = Klebsiella pneumonia, 96-well plate, 5×10^5 CFU/mL, 37° C., 10 h
# [13] = Citrobacter diversus, 96-well plate, 5×10^5 CFU/mL, 37° C., 10 h
# [14] = Aeromonas hydrophila, 96-well plate, 5×10^5 CFU/mL, 37° C., 10 h
# [15] = Moraxella catarrhalis, 96-well plate, 5×10^5 CFU/mL, 37° C., 10 h
# [16] = Pseudomonas aeruginosa, 96-well plate, 5×10^5 CFU/mL, 37° C., 10 h
# [17] = Proteus vulgaris, 96-well plate, 5×10^5 CFU/mL, 37° C., 10 h
# [18] = E. coli BL21, 96-well plate, 5×10^5 CFU/mL, 37° C., 10 h
# [19] = Enterobacter cloacae, 96-well plate, 5×10^5 CFU/mL, 37° C., 10 h
# [20] = Proteus mirabilis, 96-well plate, 5×10^5 CFU/mL, 37° C., 10 h
# [21] = 96-well plate, 5×10^5 CFU/mL, 37° C., 10 h
# [22] = 10 h cultivation at 37° C., 5×10^5 CFU/mL, two-fold serial dilution
substance,measurement,setting,value
PRT769 (CNGVDHGCEFQCVSEGLSYRCLCPEGRQLQADGKSC; listed as Homo sapiens),MIC (μg/mL) S. marcescens,Serratia marcescens; [1],12.5 µg/mL
same,MIC (μg/mL) K. pneumonia,Klebsiella pneumonia; [2],25 µg/mL
same,MIC (μg/mL) C. diversus,Citrobacter diversus; [3],12.5 µg/mL
same,MIC (μg/mL) A. hydrophila,Aeromonas hydrophila; [4],25 µg/mL
same,MIC (μg/mL) M. catarrhalis,Moraxella catarrhalis; [5],12.5 µg/mL
same,MIC (μg/mL) P. aeruginosa,Pseudomonas aeruginosa; [6],12.5 µg/mL
same,MIC (μg/mL) P. vulgaris,Proteus vulgaris; [7],25 µg/mL
same,MIC (μg/mL) E. coli BL21,E. coli BL21; [8],12.5 µg/mL
same,MIC (μg/mL) E. cloacae,Enterobacter cloacae; [9],12.5 µg/mL
same,MIC,E. coli DH5α,12.5 µg/mL
same,MIC (μg/mL) P. mirabilis,Proteus mirabilis; [10],12.5 µg/mL
PRT27 (NACASGPCPPHADCRDLWQTFSCTCQPGYYGPGCV; listed as Homo sapiens),MIC (μg/mL) S. marcescens,Serratia marcescens; [11],100 µg/mL
same,MIC (μg/mL) K. pneumonia,Klebsiella pneumonia; [12],25 µg/mL
same,MIC (μg/mL) C. diversus,Citrobacter diversus; [13],50 µg/mL
same,MIC (μg/mL) A. hydrophila,Aeromonas hydrophila; [14],25 µg/mL
same,MIC (μg/mL) M. catarrhalis,Moraxella catarrhalis; [15],12.5 µg/mL
same,MIC (μg/mL) P. aeruginosa,Pseudomonas aeruginosa; [16],50 µg/mL
same,MIC (μg/mL) P. vulgaris,Proteus vulgaris; [17],50 µg/mL
same,MIC (μg/mL) E. coli BL21,E. coli BL21; [18],25 µg/mL
same,MIC (μg/mL) E. cloacae,Enterobacter cloacae; [19],12.5 µg/mL
same,MIC,E. coli DH5α,12.5 µg/mL
same,MIC (μg/mL) P. mirabilis,Proteus mirabilis; [20],25 µg/mL
PRT617 (CNCNSKGSLSARCDNSGRCSCKPGVTGARCDRCLPGFHMLTDAGCTQ; listed as Homo sapiens),MIC S. marcescens,Serratia marcescens; [21],25 µg/mL
same,MIC K. pneumonia,Klebsiella pneumonia; [21],12.5 µg/mL
same,MIC C. diversus,Citrobacter diversus; [21],25 µg/mL
same,MIC A. hydrophila,Aeromonas hydrophila; [21],12.5 µg/mL
same,MIC M. catarrhalis,Moraxella catarrhalis; [21],12.5 µg/mL
same,MIC P. aeruginosa,Pseudomonas aeruginosa; [21],25 µg/mL
same,MIC P. vulgaris,Proteus vulgaris; [21],12.5 µg/mL
same,MIC E. coli BL21,E. coli BL21; [21],12.5 µg/mL
same,MIC E. cloacae,Enterobacter cloacae; [21],25 µg/mL
same,MIC,E. coli DH5α,25 µg/mL
same,MIC P. mirabilis,Proteus mirabilis; [21],25 µg/mL
PRT1278 (DIDECRLNNGGCDHICRNTVGSFECSCKKGYKLLINERNCQ; listed as Homo sapiens),MIC against S. marcescens,Serratia marcescens; [11],12.5 µg/mL
same,MIC against K. pneumonia,Klebsiella pneumonia; [12],12.5 µg/mL
same,MIC against C. diversus,Citrobacter diversus; [13],12.5 µg/mL
same,MIC against A. hydrophila,Aeromonas hydrophila; [14],12.5 µg/mL
same,MIC against M. catarrhalis,Moraxella catarrhalis; [15],12.5 µg/mL
same,MIC against P. aeruginosa,Pseudomonas aeruginosa; [16],12.5 µg/mL
same,MIC against P. vulgaris,Proteus vulgaris; [17],12.5 µg/mL
same,MIC against E. coli BL21,E. coli BL21; [18],12.5 µg/mL
same,MIC against E. cloacae,Enterobacter cloacae; [19],12.5 µg/mL
same,MIC,E. coli DH5α,25 µg/mL
same,MIC against P. mirabilis,Proteus mirabilis; [20],12.5 µg/mL
PRT245 (DIDECASGKVICPYNRRCVNTFGSYYCKCHIGFELQYIS; listed as Homo sapiens),MIC (μg/mL) S. marcescens,Serratia marcescens; [1],25 µg/mL
same,MIC (μg/mL) K. pneumonia,Klebsiella pneumonia; [2],12.5 µg/mL
same,MIC (μg/mL) C. diversus,Citrobacter diversus; [3],25 µg/mL
same,MIC (μg/mL) A. hydrophila,Aeromonas hydrophila; [4],12.5 µg/mL
same,MIC (μg/mL) M. catarrhalis,Moraxella catarrhalis; [5],12.5 µg/mL
same,MIC (μg/mL) P. aeruginosa,Pseudomonas aeruginosa; [6],12.5 µg/mL
same,MIC (μg/mL) P. vulgaris,Proteus vulgaris; [7],12.5 µg/mL
same,MIC (μg/mL) E. coli BL21,E. coli BL21; [8],50 µg/mL
same,MIC (μg/mL) E. cloacae,Enterobacter cloacae; [9],12.5 µg/mL
same,MIC,E. coli DH5α,12.5 µg/mL
same,MIC (μg/mL) P. mirabilis,Proteus mirabilis; [10],25 µg/mL
PRT983 (VARSCRELQCPVGVPCQQTPRGPRCACPPGLSGPSCR; listed as Homo sapiens),MIC,"Serratia marcescens; S. marcescens, 10 h cultivation at 37° C.",25 µg/mL
same,MIC,"Klebsiella pneumonia; K. pneumonia, 10 h cultivation at 37° C.",50 µg/mL
same,MIC,"Citrobacter diversus; C. diversus, 10 h cultivation at 37° C.",50 µg/mL
same,MIC,"Aeromonas hydrophila; A. hydrophila, 10 h cultivation at 37° C.",25 µg/mL
same,MIC,"Moraxella catarrhalis; M. catarrhalis, 10 h cultivation at 37° C.",12.5 µg/mL
same,MIC,"Pseudomonas aeruginosa; P. aeruginosa, 10 h cultivation at 37° C.",25 µg/mL
same,MIC,"Proteus vulgaris; P. vulgaris, 10 h cultivation at 37° C.",12.5 µg/mL
same,MIC,"E. coli BL21; E. coli BL21, 10 h cultivation at 37° C.",12.5 µg/mL
same,MIC,"Enterobacter cloacae; E. cloacae, 10 h cultivation at 37° C.",12.5 µg/mL
same,MIC,E. coli DH5α,25 µg/mL
same,MIC,"Proteus mirabilis; P. mirabilis, 10 h cultivation at 37° C.",50 µg/mL
PRT1136 (KQQFCQESLSSEFCSGHGKCLSEAWSKTYSCHCQPPFSGKYCQ; listed as Homo sapiens),MIC S. marcescens,Serratia marcescens; [22],12.5 µg/mL
same,MIC K. pneumonia,Klebsiella pneumonia; [22],12.5 µg/mL
same,MIC C. diversus,Citrobacter diversus; [22],50 µg/mL
same,MIC A. hydrophila,Aeromonas hydrophila; [22],12.5 µg/mL
same,MIC M. catarrhalis,Moraxella catarrhalis; [22],12.5 µg/mL
same,MIC P. aeruginosa,Pseudomonas aeruginosa; [22],50 µg/mL
same,MIC P. vulgaris,Proteus vulgaris; [22],50 µg/mL
same,MIC E. coli BL21,E. coli BL21; [22],12.5 µg/mL
same,MIC E. cloacae,Enterobacter cloacae; [22],50 µg/mL
same,MIC,E. coli DH5α,50 µg/mL
same,MIC P. mirabilis,Proteus mirabilis; [22],25 µg/mL
